Reference: article PMC12843137, “Fine-Tuning Side Chain Substitutions: Impacts on the Lipophilicity–Solubility–Permeability Interplay in Macrocyclic Peptides” (Marine Drugs, 2025)

Assays:
[1] = log D7.4 by shake-flask method (1-octanol/PBS); type: physicochemical; conditions: 1-octanol/PBS, pH 7.4, 1-Octanol/PBS pH 7.4, shake-flask
Description: One explanation for the high IC50 values (i.e., low activity) of the new compounds is their potential poor solubility in aqueous solution or inadequate lipophilicity. To investigate this hypothesis, we determined kinetic solubility in […] phosphate buffer at pH 7.4 (Table 1). […] The remaining two compounds, BE and 29, show low solubilities (<0.1 μM). […] Additionally, since approximately 95% of drugs are ionizable, assessment of lipophilicity at pH 7.4 (log D7.4) is essential during the initial phases of drug discovery. In this study, we employ the shake-flask method to evaluate this property. […] Because lipophilicity directly reflects compound–membrane interaction, the activity of these compounds against PANC-1 cells likely stems from their interaction with the cell membrane.
The basic solution is titrated with the acidic solution to achieve pH 7.4, with the pH verified and adjusted to 7.4 ± 0.1 on the experiment day. Saturated 1-octanol and PBS (pH 7.4) are also prepared. The stock solutions of test compounds and control compound progesterone are prepared in DMSO at a concentration of 10 mM (0.666 mM: compound 39). The detailed procedure for log D determinations can be found in the SI. […]
4. Procedure for log D determinations […]
µL of phosphate buffer saturated 1-octanol to get a concentration of 300 µM working solution. 20 µL of 300 µM compound solution is placed in order into their proper 96-well rack followed by the addition of 980 µL of 1-octanol saturated phosphate buffer. One stir stick is added to each vial and vials are sealed molded PTFE/Silicone plugs. Then the log D plate is transferred to the Eppendorf Thermomixer Comfort plate shaker and shaken at 25°C at 1,100 RPM for 1 h. The assay is performed in duplicate. After completion of 1 h, the stir sticks are removed using a big magnet. The samples are then centrifuged at 25°C at 20,000 g for 20 minutes to separate the phases, and syringe is used to remove the lower (buffer) phases to the empty tubes. Then the buffer phase is diluted with the same volume of acetonitrile/ultrapure water (50%/50%) for LC-MS/MS analysis. 300 µM working solution is diluted with acetonitrile/ultrapure water (50%/50%) to achieve a concentration of 3 µM. Then the 3 µM solution is diluted to 0.3 µM to get the total samples by adding 4 volumes of acetonitrile/ultrapure water (50%/50%) and 5 volumes of 1-octanol saturated Phosphate Buffer for LC-MS/MS analysis. […]
test compounds and control compound is placed in order into their 2.0 mL deep well plate, 500 µL of […]
followed by the addition of 500 µL of saturated PBS (pH 7.4). Seal the plate using a Silicone sealing mat.
Then the log D plate is transferred to the Eppendorf Thermomixer Comfort plate shaker and shaken at 25°C at 2,000 RPM for 2 h. After completion of 2 h, the samples are then centrifuged at 25°C at 3,220 g for 30 minutes to separate the phases, and pipette are used to remove the upper (1-octanol) and lower (buffer) phases to the empty tubes, respectively. Aliquots of 50 µL are taken from upper phases followed by addition of 450 µL of acetonitrile (containing internal standards (IS, 200 nM labetalol, 100 nM tolbutamide and 100 nM ketoprofen)). Mix with a pipette, and then aliquots of 50 µL are taken from the diluent followed by addition of 450 µL of acetonitrile (containing internal standards (IS, 200 nM labetalol, 100 nM tolbutamide and 100 nM ketoprofen)). […]

PANC-1 cells = assay: CCK-8 antiproliferative assay, PANC-1; type: cell-based; conditions: Homo sapiens, CCK-8, 72 h, mean of three independent experiments
Description: The inhibitory activities against human pancreatic cancer PANC-1 cells of the synthesized compounds were evaluated by CCK-8 assay.
Human pancreatic cancer cell lines PANC-1, PATU8988T and BxPC3 were purchased from the Cancer Institute & Hospital of the Chinese Academy of Medical Sciences (Shanghai, China). All three cell lines were cultured in RPMI-DMEM medium containing 10% fetal bovine serum, cultured at a constant temperature of 37 °C in a humidified incubator with 5% CO2.
Pancreatic cancer cells are seeded into 96-well plates. After a proliferation time of 16 h, different concentrations of compounds are added into the corresponding wells and incubated for 72 h. 10 μL of CCK-8 solution is added into each well and incubated for 1–4 h at 37 °C. Shake the plates and read the OD value of each well at 450 nm on a microplate reader.

logD [1]	IC50 (PANC-1 cells) [µM]	SMILES
> 5		CCCCCCCCCCCCCC1OC(=O)CN(C)C(=O)C=CC(CN2CCN(C)CC2)NC(=O)CNC(=O)C(C)(O)C(=O)C1C (stereo not drawn) [BE-NMP]
3.87	> 100	CCCCOc1ccc(-c2ccc(-c3ccc(Cn4cc(CCCCC[C@H]5OC(=O)CN(C)C(=O)/C=C/[C@@H](CN6CCN(C)CC6)NC(=O)CNC(=O)[C@@](C)(O)C(=O)[C@H]5C)nn4)cc3)cc2)cc1 [Compound 29]
0.93	> 100	C[C@@H]1C(=O)[C@](C)(O)C(=O)NCC(=O)N[C@H](CN2CCN(C)CC2)/C=C/C(=O)N(C)CC(=O)O[C@H]1CCCCCc1cn(CCCCCCCNc2cccc3c2CN(C2CCC(=O)NC2=O)C3=O)nn1 (stereo partly drawn) [Compound 40]
	> 100	CC1C(=O)C(C)(O)C(=O)NCC(=O)NC(CN2CCN(C)CC2)C=CC(=O)N(C)CC(=O)OC1CCCCc1cn(CCCCCCCCNC(=N)N)nn1 (stereo not drawn) [Compound 31]
